# Source: patent US20180360799A1, “Nitrofuran Derivatives That Induce Apoptosis in Breast Cancer Cells by Activating Protein Expression” (Oklahoma Medical Research Foundation, priority 2015, published 2018)
# System: ATF4 mRNA
# Assay: ATF4 mRNA by qRT-PCR
# Format: cell-based, human
# Settings: 10 μM, indicated times
# Description: Results are the means of 4 replicate wells and are representative of 3 independent studies. *P<0.05 by Student's t-test compared with DMSO-treated cells. Prolonged or severe ER stress activates CHOP expression primarily through the PERK branch of the unfolded protein response, although the IRE1α and ATF6 branches also contribute.^5, 18 The 5-nitrofuran-2-amide derivatives could induce CHOP expression by acting as an ER stressor that activates all three branches of unfolded protein response or by preferentially activating a select branch of unfolded protein response. To distinguish between these possibilities, the inventor investigated which branches of the unfolded protein response were affected by compound 3d. […] Total RNA was extracted using TRIzol reagent (Invitrogen, Carlsbad, Calif.) according to the manufacturer's protocol, and 2 μg of total RNA was reverse transcribed using a Superscript kit (Invitrogen). Real-time PCR was performed in 96-well format using SYBR Select Master Mix (Applied Biosystems, Foster City, Calif.) with an ABI 7500 PCR system (Applied Biosystems). The primer sequences used were: Human CHOP: SEQ ID NO: 1 [NT] and SEQ ID NO: 2 [NT]. Human ATF4: SEQ ID NO: 3 [NT] and SEQ ID NO: 4 [NT]. Human XBP1: SEQ ID NO: 5 [NT] and SEQ ID NO: 6 [NT]. Human Cyclophilin A: SEQ ID NO: 7 [NT] and SEQ ID NO: 8 [NT]. Human GAPDH: SEQ ID NO: 9 [NT] and SEQ ID NO: 10 [NT].
structure (smiles),measurement,value
CC1CCN(c2ccc(NC(=O)c3ccc([N+](=O)[O-])o3)cc2)CC1 [Compound 3d],"ATF4 expression, mRNA",significantly increased ATF4 expression
